Measurements: patent US20140069008A1, “PLANT C[…] UTILIZING PHOSPHITE AS A NUTRIENT AND AS A CONTROL AGENT FOR WEEDS AND ALGAE” (Centro de Investigacion y de Estudios Avanzados del …, priority 2010, published 2014)

Tests used:
[1] = test system: control plants (WT Arabidopsis); test: Greenhouse growth in sterilized sand and vermiculite supplemented with Phi, control plants; type: in vivo
Method: For Arabidopsis greenhouse experiments, pots were filled with 0.3 kg of a sterilized mixture of sand and vermiculite (1:1) and mechanically mixed with either Pi (KH2PO4) or Phi (NaH2PO3.5H2O) at 10, 20, and 40 mg·kg^−1. For tobacco experiments, 3 kg of the same substrate were weighed in black plastic bags amended with 20, 40, and 80 mg·kg^−1 of Pi or Phi. One plant per pot and 8-10 plants per line per treatment were included. Pots were arranged following a completely random design in the greenhouse. At harvest, aerial parts of Arabidopsis (36 days old) and Tobacco (120 days old) plants were cut off at the soil surface and dried in a vacuum oven at 70° C. for biomass quantification. In all cases, seeds were collected separately. Photosynthesis rate was determined using a portable Li-6200 photosynthesis system (Li-Cor, Lincoln, Nebr., USA) on fully expanded, young leaves. Leaf area was calculated using the software ImageJ [35].
FIG. 5. Transgenic Arabidopsis plants expressing a phosphite oxidoreductase can use phosphite as a phosphorus source. (A) Comparative growth of seedlings from ptxDAt-3, -5 and -7 lines, and wild type (WT, Col-0) in solid media containing 1 mM phosphate (Pi) or 1 mM phosphite (Phi). (B) Transgenic Arabidopsis lines and WT control grown in vertical plates containing 1 mM Phi. […]

[2] = test system: control seedlings (wild type, Col-0); test: Germination and growth of non-transformed seedlings in media lacking Pi, supplemented with Phi; type: in vivo, Arabidopsis
Method: To confirm that 35S::PTXD plants are capable of using Phi as a P source, seeds from transgenic lines and non-transformed siblings were germinated in media lacking Pi, and supplemented with Phi.
FIG. 5. Transgenic Arabidopsis plants expressing a phosphite oxidoreductase can use phosphite as a phosphorus source. (A) Comparative growth of seedlings from ptxDAt-3, -5 and -7 lines, and wild type (WT, Col-0) in solid media containing 1 mM phosphate (Pi) or 1 mM phosphite (Phi). (B) Transgenic Arabidopsis lines and WT control grown in vertical plates containing 1 mM Phi. (C) Transgenic and WT plants grown in a sterilized mixture of sand and vermiculite fertilized with Pi or Phi as phosphorus (P) source. Treatment without addition of a P source (NO P) was utilized as a control. A top view of WT plants in media containing 40 mg·kg^−1 Phi is included. Photographed plants are representative of two experiments with 8-10 plants/treatment/line each. The bar represents 5 cm to indicate scale.
FIG. 6. Growth of WT Arabidopsis and tobacco plants in phosphite-containing media. Comparative growth of Arabidopsis and tobacco non-transformed seedlings in media lacking a phosphorus (P) source supplemented with 1 mM or 0.005 mM phosphate (Pi) or 1 mM phosphite (Phi).

[3] = test system: False Brome (Brachypodium distachyon); test: Growth competition experiment, weed; type: in vivo
Text: (§1) In addition to the incapacity of plants to metabolize it, Phi acts as a potentially effective herbicide mainly by interfering with the signaling pathways that induce the rescue system activated in Pi-starved plants. Cultivation of transgenic plants expressing the ptxD gene, combined with Phi as a P fertilizer, could be an effective weed control system in soils with low Pi availability. To test this idea, we carried out growth competition experiments between ptxDNt plants and the grass weed False Brome (Brachypodium distachyon), using Phi or Pi as a P fertilizer. In unfertilized soil, both B. distachyon and tobacco plants had limited growth. When soil was fertilized with Pi, the growth of both species increased, with the grass showing faster growth than the tobacco plants.
(§2) For growth competition experiments, different proportions of seeds from ptxDNt-80 and the following weeds were utilized (transgenic:weed): Ipomoea purpurea (13:30), Brachiaria plantaginea (13:60), Amaranthus hybridus (5:15), Brachypodium distachyon (50:50). All seeds were sown in a tray containing a nonsterilized mixture of sand and vermiculite (2 kg for experiments with Amaranthus hybridus and 6 kg for the rest). […] Plants were harvested (at 54 day old for Brachiaria and Ipomoea or at 40 day old for A. hybridus experiments) for biomass quantification. […]

ptxDNt plants = test: Greenhouse growth in sterilized sand and vermiculite amended with Phi, transgenic tobacco; type: in vivo, Nicotiana tabacum L. cv Xanthi
Text: (§3) To determine whether expression of the ptxD gene would enable other plant species more amenable for physiological and weed-control studies to use Phi as a P source, we generated transgenic tobacco plants harboring the 35S::PTXD construct (ptxDNt lines) (see FIG. 8). Transgenic and control seedlings were transferred to plastic bags containing a sterilized mixture of sand and vermiculite amended with either Phi or Pi as P source. […] Because the main negative effect in vitro of Phi on WT plants was on root growth, we also examined the root system of transgenic and control plants grown under different treatments. […] Transgenic plants fertilized with Phi quantitatively performed as well as WT and ptxDNt plants fertilized with Pi (see FIG. 10A).
Pi is essential for CO2 fixation in the chloroplast, and plants suffering from Pi starvation have reduced levels of photosynthesis. […] When fertilized with either Pi or Phi, ptxDNt plants had rates of photosynthesis similar to those observed for control plants grown in Pi (see FIG. 10A). The effect on photosynthesis and root system development of control plants fertilized with Phi could not be evaluated because these plants died soon after transplantation.
(§4) For Arabidopsis greenhouse experiments, pots were filled with 0.3 kg of a sterilized mixture of sand and vermiculite (1:1) and mechanically mixed with either Pi (KH2PO4) or Phi (NaH2PO3.5H2O) at 10, 20, and 40 mg·kg^−1. […] At harvest, aerial parts of Arabidopsis (36 days old) and Tobacco (120 days old) plants were cut off at the soil surface and dried in a vacuum oven at 70° C. for biomass quantification. […] Photosynthesis rate was determined using a portable Li-6200 photosynthesis system (Li-Cor, Lincoln, Nebr., USA) on fully expanded, young leaves. Leaf area was calculated using the software ImageJ [35].
FIG. 10. […] Note that Phi was not detected either in leaf or floral tissues of ptxDNt-36 plants grown in a Phi-amended substrate. * Indicates measurements that are statistically different from the corresponding control (p<0.005).

[4] = test system: ptxDNt plants (ptxDNt-80); test: Growth competition experiment, transgenic tobacco; type: in vivo, Nicotiana tabacum; conditions: Phi fertilization, competition with B. distachyon
Text: as §1, §2

[5] = test system: transgenic tobacco line ptxDNt-80; test: Cultivation of transgenic tobacco in non-sterilized acidic agricultural soil amended with phosphite; type: in vivo
Method: The results of Example 1 were obtained from greenhouse experiments with plants grown in a sterilized mixture of sand and vermiculite as the substrate. In contrast, the present example reports experiments performed in a greenhouse using a non-sterilized agricultural soil as a substrate, to determine whether the cultivation system disclosed herein works equally well with a natural substrate. Although the experiments were performed in a greenhouse, the agricultural soil was not sterilized and therefore contained soil organisms, such as bacteria and fungi, that live naturally in the soil.
An acidic agricultural soil was obtained from North Mexico. The soil has a low content of phosphorus, about 5 parts per million. The soil was used directly from the field, and was not sterilized. The soil is a sandy loam, composed of about 30% clay, 21% silt, and 49% sand, and is acidic, with a pH of 5.1. The soil has an electrical conductivity (milli-mhos per centimeter) of 0.20. The soil has 1.4% organic matter. Besides phosphorus, the soil has the following assimilable nutrients and minor elements (parts per million): nitrogen 5, potassium 100, iron 7, manganese 26, copper 0.2, and zinc 0.9. The soil has soluble cations and anions (milli-equivalents per liter) as follows: potassium 0.15, calcium 1.5, magnesium 0.5, sodium 0.5, bicarbonates 1.0, and chlorides 0.7.
A transgenic tobacco line, ptxDNt-80, was used for the experiments. The transgenic line has been modified genetically to express a bacterial phosphite oxidoreductase, namely, PtxD (SEQ ID NO:1). The soil was amended with 40, 60, or 80 parts per million of phosphorus by addition of phosphate or phosphite. Then, seeds from the transgenic and control lines were sowed on the soil. The growth of the transgenic line was measured at different days after germination.

WT plants (tobacco) = test: Greenhouse growth in sterilized sand and vermiculite amended with Phi, WT tobacco; type: in vivo, Nicotiana tabacum L. cv Xanthi; conditions: substrate supplemented with Phi, after transplantation
Text: as §3
as §4, with “[35]. […]” for “[35].”

**Q.** phosphite was tested. Which “survival of control plants” value [1] did it give?
**A.** ≤ 20 days

**Q.** And the “growth of control seedlings” value [2]?
**A.** completely arrested

**Q.** What about the “decrease of weed biomass with respect to Pi fertilization” value ([3]; Phi fertilization, competition with ptxDNt tobacco) of the same substance?
**A.** 90%

**Q.** And the “time at which weed growth was completely arrested” value ([3]; Phi used as fertilizer)?
**A.** 15-20 days after sowing

**Q.** What about the “total biomass difference versus plants under similar Pi regime” value (ptxDNt plants; 80 mg·kg^−1 of Phi, greater than Pi, statistically significant) of the same substance?
**A.** 40%

**Q.** And the “total biomass versus plants under similar Pi regimes” value (ptxDNt plants; 20 and 40 mg·kg^−1 of Phi)?
**A.** slightly higher

**Q.** What about the “rate of photosynthesis versus control plants grown in Pi” value (ptxDNt plants; fertilized with Phi) of the same substance?
**A.** similar

**Q.** What about the “increase of tobacco biomass with respect to Pi fertilization” value [4] of the same substance?
**A.** 865%

**Q.** What about the “more seeds than either line fertilized with the same amount of phosphate” value ([5]; 20 parts per million phosphite, four months after germination) of the same substance?
**A.** 33%

**Q.** What about the “height versus transgenic or control plants fertilized with phosphate” value ([5]; 68 or 74 days after germination) of the same substance?
**A.** greater height

**Q.** What about the “biomass of leaves and stems versus either line fertilized with phosphate” value ([5]; 80 parts per million phosphite, 75 days after germination) of the same substance?
**A.** higher biomass

**Q.** What about the “total production of capsules and seeds per plant versus either line fertilized with phosphate” value ([5]; four months after germination) of the same substance?
**A.** similar

**Q.** And the “development of WT plants” value (WT plants (tobacco))?
**A.** completely arrested their development and died a few days after transplantation
